# Measured values: patent publication US20220323406A1, “METHODS AND COMPOSITIONS FOR DIFFERENTIATING STEM CELLS” (Massachusetts Institute of Technology, priority 2019, published 2022)
# Where a name gives a salt, the structure may show the parent alone.
# Key:
# [1] = tested on: ENR+CD organoids (ISC to Paneth cell differentiation); test: Primary screen: basal (non-stimulated) lysozyme secretion LYZ.NS, 2.5-D 384-well ENR+CD organoid differentiation; format: cell-based, mouse; settings: primary screen; for Z.LYZ.NS: standard z score
# Excerpt: (§1) High-throughput screening.
# [2] = tested on: ENR+CD organoids; test: Primary screen: ATP (CellTiter-Glo 3D, CTG) cell number/viability, 2.5-D 384-well ENR+CD organoids; settings: primary screen; for Z.CTG: standard z score;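 on all read-outs here: compounds given at plating and again on day 3 over a 6-day differentiation from ENR+CV stem-cell-enriched precursors, ATP measured on day 6, plate median as control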
# [3] = tested on: ENR+CD organoids (ISC to Paneth cell differentiation); test: Primary screen: CCh-stimulated lysozyme secretion LYZ.S, 2.5-D 384-well ENR+CD organoid differentiation; format: cell-based, mouse; settings: primary screen
# Excerpt: as §1
# [4] = dose 0.08 uM, FC relative to plate median
# [5] = dose 0.40 uM, FC relative to plate median
# [6] = dose 2.00 uM, FC relative to plate median
# [7] = dose 10.00 uM, FC relative to plate median
Compound,Dose.FC.LYZ.NS ([1]; dose 0.08 uM),Z.LYZ.NS (standard z score) ([1]; dose 0.08 uM),Dose.FC.LYZ.NS ([1]; dose 0.40 uM),Z.LYZ.NS (standard z score) ([1]; dose 0.40 uM),Dose.FC.LYZ.NS ([1]; dose 2.00 uM),Z.LYZ.NS (standard z score) ([1]; dose 2.00 uM),Dose.FC.LYZ.NS ([1]; dose 10.00 uM),Z.LYZ.NS (standard z score) ([1]; dose 10.00 uM),Dose.FC.CTG ([2]; dose 0.08 uM),Dose.FC.CTG ([2]; dose 0.40 uM),Dose.FC.CTG ([2]; dose 2.00 uM),Dose.FC.CTG ([2]; dose 10.00 uM),Dose.FC.LYZ.S ([3]; dose 0.08 uM),Dose.FC.LYZ.S ([3]; dose 0.40 uM),Dose.FC.LYZ.S ([3]; dose 2.00 uM),Dose.FC.LYZ.S ([3]; dose 10.00 uM),Dose.FC.LYZ.NS (log2 fold change) ([1]; dose 0.08 uM),Z.CTG (standard z score) ([2]; dose 0.40 uM),Z.CTG (standard z score) ([2]; dose 2.00 uM),Z.CTG (standard z score) ([2]; dose 10.00 uM),further results
Clc1ccccc1CN1CCc2sccc2C1 [Ticlopidine HCl],0.043 log2 fold change,0.373,0.010 log2 fold change,0.084,−0.002 log2 fold change,−0.018,−0.035 log2 fold change,−0.308,−0.118 log2 fold change,−0.041 log2 fold change,−0.234 log2 fold change,−0.005 log2 fold change,0.052 log2 fold change,0.072 log2 fold change,−0.022 log2 fold change,0.076 log2 fold change,–,–,–,–,–
SN-38,–,–,–,–,–,–,–,–,–,–,–,–,–,–,–,–,–,–,–,–,"Dose.FC.LYZ.NS [1, 4]: −0.275 log2 fold change; Z.LYZ.NS ([1]; dose 0.08 uM): −2.391; Dose.FC.LYZ.NS [1, 5]: −0.288 log2 fold change; Z.LYZ.NS ([1]; dose 0.40 uM): −2.505; Dose.FC.LYZ.NS [1, 6]: −0.305 log2 fold change; Z.LYZ.NS ([1]; dose 2.00 uM): −2.655; Dose.FC.LYZ.NS [1, 7]: −0.299 log2 fold change; Z.LYZ.NS ([1]; dose 10.00 uM): −2.606; Dose.FC.CTG [2, 4]: −0.720 log2 fold change; Z.CTG ([2]; dose 0.08 uM): −1.720; Dose.FC.CTG [2, 5]: −1.091 log2 fold change; Z.CTG ([2]; dose 0.40 uM): −2.606; Dose.FC.CTG [2, 6]: −1.226 log2 fold change; Z.CTG ([2]; dose 2.00 uM): −2.929; Dose.FC.CTG [2, 7]: −1.166 log2 fold change; Z.CTG ([2]; dose 10.00 uM): −2.785; Dose.FC.LYZ.S [3, 4]: −0.419 log2 fold change; Dose.FC.LYZ.S [3, 5]: −0.402 log2 fold change; Dose.FC.LYZ.S [3, 6]: −0.391 log2 fold change; Dose.FC.LYZ.S [3, 7]: −0.404 log2 fold change"
C[C@@H](Oc1cc(-n2cnc3ccc(CN4CCN(C)CC4)cc32)sc1C(N)=O)c1ccccc1C(F)(F)F [GSK461364],–,0.682,–,−0.834,–,−2.138,–,−2.498,–,–,–,–,–,–,–,–,0.078,−0.368,−1.500,−1.484,Dose.FC.LYZ.NS (log2 fold change) ([1]; dose 0.40 uM): −0.096; Dose.FC.LYZ.NS (log2 fold change) ([1]; dose 2.00 uM): −0.246; Dose.FC.LYZ.NS (log2 fold change) ([1]; dose 10.00 uM): −0.287; Dose.FC.CTG (log2 fold change) ([2]; dose 0.08 uM): 0.160; Z.CTG (standard z score) ([2]; dose 0.08 uM): 0.383; Dose.FC.CTG (log2 fold change) ([2]; dose 0.40 uM): −0.154; Dose.FC.CTG (log2 fold change) ([2]; dose 2.00 uM): −0.628; Dose.FC.CTG (log2 fold change) ([2]; dose 10.00 uM): −0.621; Dose.FC.LYZ.S (log2 fold change) ([3]; dose 0.08 uM): 0.112; Dose.FC.LYZ.S (log2 fold change) ([3]; dose 0.40 uM): −0.093; Dose.FC.LYZ.S (log2 fold change) ([3]; dose 2.00 uM): −0.352; Dose.FC.LYZ.S (log2 fold change) ([3]; dose 10.00 uM): −0.390
O=C(Nc1ccccc1)N1CCN(c2nc(-c3ccccc3)ns2)CC1 [JNJ-1661010],–,1.066,–,0.653,–,0.897,–,0.406,–,–,–,–,–,–,–,–,0.122,−0.625,−0.131,−0.346,Dose.FC.LYZ.NS (log2 fold change) ([1]; dose 0.40 uM): 0.075; Dose.FC.LYZ.NS (log2 fold change) ([1]; dose 2.00 uM): 0.103; Dose.FC.LYZ.NS (log2 fold change) ([1]; dose 10.00 uM): 0.047; Dose.FC.CTG (log2 fold change) ([2]; dose 0.08 uM): −0.094; Z.CTG (standard z score) ([2]; dose 0.08 uM): −0.225; Dose.FC.CTG (log2 fold change) ([2]; dose 0.40 uM): −0.262; Dose.FC.CTG (log2 fold change) ([2]; dose 2.00 uM): −0.055; Dose.FC.CTG (log2 fold change) ([2]; dose 10.00 uM): −0.145; Dose.FC.LYZ.S (log2 fold change) ([3]; dose 0.08 uM): 0.135; Dose.FC.LYZ.S (log2 fold change) ([3]; dose 0.40 uM): 0.041; Dose.FC.LYZ.S (log2 fold change) ([3]; dose 2.00 uM): −0.063; Dose.FC.LYZ.S (log2 fold change) ([3]; dose 10.00 uM): −0.068
CCN[C@H]1CN(CCCOC)S(=O)(=O)c2sc(S(N)(=O)=O)cc21 [Brinzolamide],0.133 log2 fold change,1.159,0.084 log2 fold change,0.733,0.059 log2 fold change,0.511,0.060 log2 fold change,0.521,−0.007 log2 fold change,−0.068 log2 fold change,0.118 log2 fold change,0.078 log2 fold change,0.030 log2 fold change,0.052 log2 fold change,0.064 log2 fold change,0.083 log2 fold change,–,−0.163,0.282,0.186,–
